Laboratory results as given in ChEMBL document CHEMBL6134825, “Mechanisms and therapeutic strategies for NLRP3 degradation via post-translational modifications in ubiquitin-proteasome and autophagy lysosomal pathway” (Eur J Med Chem, 2025).

Key:
[1] = Acute toxicity in po dosed ICR mouse assessed as lethal dose; format: organism-based; details: in vivo
[2] = Metabolic stability in rat liver microsomes assessed as half life measured for 60 mins by LC-MS/MS analysis; format: ADME, Microsome
[3] = AUC(0 to t) in Sprague-Dawley rat at 5 mg/kg, po measured up to 24 hrs by LC-MS/MS analysis; format: ADME, organism-based; details: in vivo
[4] = Toxicity in ip dosed rat assessed as lethal dose; format: organism-based; details: in vivo
[5] = Toxicity in iv dosed rat assessed as lethal dose; format: organism-based; details: in vivo
[6] = AUC(0 to t) in ICR mouse plasma at 5 mg/kg, po measured for 60 mins by LC-MS/MS analysis; format: ADME, organism-based
[7] = Oral bioavailability in ICR mouse at 5 mg/kg; format: ADME, organism-based; details: in vivo
[8] = AUC(0 to t) in Sprague-Dawley rat at 300 mg/kg, po measured up to 24 hrs by LC-MS/MS analysis; format: ADME, organism-based; details: in vivo
[9] = Microsomal metabolic stability in Beagle dog liver microsomes assessed as half life […] by LC-MS/MS analysis; format: ADME, Canis lupus familiaris, Microsome
[10] = AUC(0 to t) in Beagle dog at 3.6 mg/kg, po measured for 24 hrs by LC-MS/MS analysis; format: ADME, organism-based, Canis lupus familiaris; details: in vivo
[11] = Oral bioavailability in Beagle dog at 3.6 mg/kgm measured for 24 hrs by LC-MS/MS analysis; format: ADME, organism-based, Canis lupus familiaris; details: in vivo, dose 3.6 mg/kg
[12] = Metabolic stability in human liver microsome assessed as half life; details: liver microsomes
[13] = Oral bioavailability in human at 2 microg/kg measured for 60 mins by LC-MS/MS analysis; details: in vivo, 0.002 mg/kg
[14] = AUC(0 to t) in ICR mouse plasma at 2 microg/kg, po measured for 60 mins by LC-MS/MS analysis; details: 0.002 mg/kg
[15] = AUC(0 to t) in Sprague-Dawley rat at 20 mg/kg, po measured up to 24 hrs by LC-MS/MS analysis; format: ADME, organism-based; details: in vivo
[16] = Oral bioavailability in Sprague-Dawley rat at 20 mg/kg by LC-MS/MS analysis; format: ADME, organism-based; details: in vivo
[17] = Oral bioavailability in Sprague-Dawley rat at 5 mg/kg by LC-MS/MA analysis; format: ADME, organism-based; details: in vivo
[18] = Toxicity in rat assessed as lethal dose; details: in vivo

COc1cc(/C=C/C(=O)O)ccc1O [FERULATE] gave an LD50 [1] of 3200 mg/kg.
Molecule Cc1cnc(-c2ccccc2C(C)C)nc1NCc1ccc(-n2ccnn2)cc1 has a half-life [2] of 0.2 h.
O=c1c(-c2ccc(O)cc2)coc2c([C@@H]3O[C@H](CO)[C@@H](O)[C@H](O)[C@H]3O)c(O)ccc12 [PUERARIN] gave an AUC(0-t) at 24 h [3] of 109 µg·h/mL, an LD50 [4] of 1410 mg/kg and an LD50 [5] of 634 mg/kg.
With O=C(Nc1c2c(cc3c1CCC3)CCC2)NS(=O)(=O)c1ccc(OCCOCCOCCOCCN2C(=O)/C(=C\c3cc(Br)c(O)c(Br)c3)c3cc(I)ccc32)cc1 the AUC(0-t) at 1 h [6] was 551 µg·h/mL and the bioavailability [7] was 19%.
Work on O=C1c2cccc(O)c2C(=O)c2c(O)cc(CO)cc21 [ALOE-EMODIN] yielded an AUC(0-t) at 24 h [8] of 42.8 µg·h/mL.
C[C@@H]1C(=O)O[C@H]2[C@@H](O)C34[C@H]5C[C@@H](C(C)(C)C)C36[C@@H](OC(=O)[C@@H]6O)O[C@@]4(C(=O)O5)[C@@]12O (stereo partly drawn) showed a half-life [9] of 1 h, an AUC(0-t) at 24 h [10] of 356 µg·h/mL and a bioavailability [11] of 17%.
Cc1cccc([C@H](C)c2cnc[nH]2)c1C [DEXMEDETOMIDINE] gave a half-life [12] of 2 h, a bioavailability at 1 h [13] of 15.6% and an AUC(0-t) at 1 h [14] of 0.45 µg·h/mL.
O=c1c(O)c(-c2ccc(O)cc2)oc2cc(O)cc(O)c12 [KAEMPFEROL] showed an AUC(0-t) at 24 h [15] of 234 µg·h/mL, a bioavailability [16] of 2% and a bioavailability [17] of 7%. It also gave an LD50 [18] of 3810 mg/kg.
